Patent US20030017166A1, “Combination preparation for the therapy of immunological diseases” (priority 2001, published 2003)

How the values were obtained:
[1] = test system: susceptibility to infection; conditions: clinical investigations and investigations on experimental animals; cited from earlier work
[2] = test system: contact allergy to nickel and cobalt (contact dermatitis); experiment: Contact dermatitis induced with nickel or cobalt vaseline preparations in volunteer test subjects; type: in vivo, human
Text: Contact dermatitis was selected as a model disease for the large number of T cell-mediated immune reactions (generally: overshooting damaging immune reactions) since it can be induced by applying the contact allergens to the skin and the severity of the inflammatory reaction and immune reaction can readily be assessed by observing the skin symptoms.
The contact allergies were induced by applying preparations in white vaseline. These vaseline preparations contained either 1% cobaltII chloride or 5% nickelII sulfate.
For inducing the contact dermatitis, the vaseline preparation was applied once daily to an area of approx. 2×2 cm^2, usually on the upper arm or the lower arm.
The contact dermatitis was subdivided into the following levels in accordance with the extent of the inflammatory reaction:
Level 1: very minor inflammatory reaction, slight reddening of the skin;
Level 2: minor inflammatory reaction, reddening of the skin and possible itching;
Level 3: slight inflammatory reaction, reddening and edematous swelling of the skin, itching;
Level 4: moderate inflammatory reaction, reddening, edematous swelling, vesicles or blister formation, itching;
Level 5: pronounced inflammatory reaction: reddening, edematous swelling, vesicles and blister formation, weeping erosions and possible incrustation.
The severity of the inflammatory reaction which occurred was controlled by administering Ultralan® tablets systemically. When the antigen-specific regulatory immune response was induced, the inflammatory reaction was kept in the range of levels 1 and 2 by administering fluocortolone (Ultralan®). If a contact dermatitis of level 3 or higher developed despite the administration of Ultralan®, the dose of Ultralan® was then increased up to the next dosage level. If required, the dose was increased once again 2 days after the last increase in the dose.
As soon as it was no longer possible to observe any symptoms of the contact dermatitis at a given dosage level of Ultralan®, the dose was reduced on the following day and subsequently maintained once again until all the symptoms of the contact allergy had disappeared, after which the dose of Ultralan was reduced once again until, finally, it was no longer necessary to administer any Ultralan®.
As a rule, the following gradations in the daily doses of Ultralan® were employed: 20 mg, 15 mg, 10 mg, 7.5 mg, 5 mg, 2.5 mg and 0 mg.
An appropriate blood level of leflunomide was achieved by means of a loading dose of 100 mg on the first three consecutive days of the leflunomide therapy; after that, the leflunomide dose was reduced to 20 mg per day. Unless otherwise stated, this dose of leflunomide was maintained for up to 30 days after the time point at which the administration of flucortolone was terminated.
Subsequently, the leflunomide was eliminated at an accelerated rate from the body by means of administering 3× daily doses of 8 grams of cholestyramine over a period of 10 days.
As described above, the antigen is applied to the skin once a day using a preparation prepared from white vaseline. As a rule, the antigen was administered up to the tenth day after the last administration of leflunomide.
In the investigations into the development of a regulatory immune response in connection with the contact dermatitis, a fresh exposure to the antigen against which a regulatory immune response had been developed was carried out no earlier than 1 month after the last contact with the antigen.

[3] = test system: rheumatoid arthritis; conditions: monotherapy; cited from earlier work
[4] = test system: allergic rhinitis/conjunctivitis against hazelnut pollen and grass pollen; experiment: Allergic rhinitis/conjunctivitis on exposure to hazelnut pollen or grass pollen in patients; type: in vivo, human
Text: The effect of the combination therapy on type I allergy (allergic conjunctivitis and rhinitis) was investigated since type I allergy is an antibody-induced disease which is regulated by T cells. […] In the allergy investigations, contact with the antigen took place aerogenically, by exposure to hazelnut pollen or the pollen of grasses.
First of all, the test subjects were exposed to the allergen pollens in order to verify the existence of the allergy.
After a month, the two test subjects were given a loading dose of in each case 100 mg of leflunomide on 3 consecutive days. The test subjects were then given a constant daily dose of 20 mg of leflunomide.
On the 4th day of the leflunomide administration, the test subjects were exposed to one of the two allergens.
After these 30 days, the leflunomide was eliminated from the body in an accelerated manner by means of the 3× daily administration of cholestyramine over a period of 10 days. During this accelerated elimination, the daily exposure to antigen was continued.
In addition, the test subjects were able to use vasoconstrictors, such as Otriven® nasal drops and Yxin® eyedrops, to alleviate acute symptoms.
Neomycin sulfate was used, at a concentration of 50 mg/ml in physiological sodium chloride solution, as an immunomodulatory substance, as eyedrops and as a metered nasal spray. During the allergen exposure (season of airborne pollen), the neomycin solution was initially administered every 3 hours during the day. As soon as symptoms of an allergic reaction, such as severe itching, tears, flow of nasal secretion or sneezing impulses, occurred, this inflammatory reaction was suppressed, within the first 5 days, by using the dexametasone eyedrops, the dexamethasone nasal spray, xylometazoline nasal drops and Yxin® eyedrops. The steroids and the vasoconstrictors were administered as required.

Cc1oncc1C(=O)Nc1ccc(C(F)(F)F)cc1 [leflunomide, N-(4-trifluoromethylphenyl)-5-methylisoxazole-4-carboxamide]
susceptibility to infection [1]: does not increase susceptibility to infection | symptoms of contact allergy on provocation with the antigen given during leflunomide ([2]; Investigation 1.1, 4 weeks after end of treatment cycle, 2 weeks provocation): did not appear in any of the test subjects | symptoms of the contact allergy during 30 days of daily leflunomide and antigen ([2]; Investigation 1.1, after steroids completely discontinued): not possible to observe any symptoms of the contact allergy | symptoms of the contact allergy during accelerated elimination of leflunomide ([2]; Investigation 1.1, cholestyramine over 10 days, continued allergen exposure): not observed in any of the test subjects | level of skin reaction (contact dermatitis levels 1-5) ([2]; Investigation 1.1, leflunomide 100 mg x 3 days then 20 mg/day, allergen from 4th day, within 2 days, before steroids): 3 to 4 level | level of contact dermatitis on exposure to the antigen not given during leflunomide ([2]; Investigation 1.2, 4 weeks later, within 2 days): 3 to 4 level | symptoms of contact allergy to the leflunomide-associated allergen applied on still inflamed skin ([2]; Investigation 1.3, allergen switched on 3rd day): persisted as long as the contact allergen was being administered | contact allergy on re-exposure to the leflunomide-associated antigen after inflammation regressed ([2]; Investigation 1.4, after 4 weeks break, exposure period of 2 weeks): did not react with any contact allergy | symptoms of contact allergy after switch to the leflunomide-associated antigen under inflammation ([2]; Investigation 1.5, period of 2 weeks): persisted | level of contact allergy on exposure to the antigen not given during leflunomide ([2]; Investigation 1.5, within 2 days): 3 to 4 level | symptoms of contact allergy on exposure to the leflunomide-associated allergen ([2]; Investigation 1.6, 4 weeks later, first 2 weeks of exposure): No symptoms of a contact allergy were observed | time to disappearance of inflammatory reactions after UV-A on the side with contact allergen ([2]; Investigation 1.6, continued allergen exposure): ≥ 7 days | symptoms of inflammation after UV-A irradiation on arm with contact allergen versus arm without ([2]; Investigation 1.6, identical irradiation of both arms): somewhat stronger | course of contact allergy on allergen exposure ([2]; Investigation 3.1, shortened 2-week phase, days following first reddening): increasing symptoms of a contact allergy | onset of slight reddening after beginning allergen exposure ([2]; Investigation 3.1, steroid-free leflunomide plus allergen phase shortened from 30 days to 2 weeks, exposure 4 weeks after discontinuing leflunomide): 3 to 4 days | regulatory immune response 4 weeks after treatment ([2]; Investigation 3.3, leflunomide and contact allergen continued for 20 days, then accelerated elimination): a stable antigen-specific regulatory immune response had developed | effect on rheumatoid arthritis when administered on its own [3]: able to reduce the progression of rheumatoid arthritis but is not able to cure the disease | reaction on first allergen exposure under leflunomide ([4]; Investigation 4.1, 2 test subjects, 4th day of leflunomide, before steroid): reacted immediately with allergic symptoms | allergy symptoms during steroid-free leflunomide plus antigen phase and accelerated elimination ([4]; Investigation 4.1, 30 days plus 10 days cholestyramine, daily antigen): no symptoms of an allergy appeared | allergic symptoms on re-exposure to the allergen given during leflunomide ([4]; Investigation 4.1, after one month break, daily exposure over 2 weeks): did not develop any symptoms of an allergic reaction | allergy symptoms on exposure to the antigen not given during leflunomide ([4]; Investigation 4.2, grass pollen dust 1x daily, within 2 days): developed symptoms of an allergy | allergy symptoms to the leflunomide-associated antigen under inflammatory conditions ([4]; Investigation 4.3, 3rd and 4th day, only leflunomide-associated antigen administered): Symptoms of an allergy developed | allergy symptoms on re-exposure to the leflunomide-associated antigen ([4]; Investigation 4.4, after a further 4 weeks, 2 weeks of daily exposure): No symptoms of an allergy developed

C[C@@H]1C[C@H]2[C@@H]3C[C@H](F)C4=CC(=O)C=C[C@]4(C)[C@H]3[C@@H](O)C[C@]2(C)[C@H]1C(=O)CO [Ultralan®, fluocortolone]
contact dermatitis while Ultralan was being reduced stepwise ([2]; Investigation 1.1, 4 test subjects, Ultralan alone, no leflunomide, continued allergen exposure): reappeared | time to complete disappearance of contact allergy symptoms ([2]; Investigation 1.1, Ultralan added to leflunomide and allergen, allergy adjusted to grade 1-2): 3 to 5 days | symptoms of contact allergy after brief Ultralan suppression and discontinuation ([2]; Investigation 1.5, allergen continued for further 2 weeks after Ultralan discontinued): no symptoms of any contact allergy appeared | symptoms of contact allergy after abrupt Ultralan discontinuation ([2]; Investigation 2.1, 2 test subjects, fully suppressive Ultralan dose for 4 weeks with leflunomide and allergen, one day after discontinuation): Massive symptoms of the contact allergy developed | time to disappearance of symptoms ([2]; Investigation 3.2, single administration of 5 mg Ultralan with simultaneous leflunomide): one | dose of Ultralan sufficient to restrict the symptoms of the contact allergy to levels 1 to 2 ([2]; systemic tablets, as a rule): at most 10 mg/day | allergic symptoms immediately after antigen exposure under Ultralan and vasoconstrictors ([4]; Investigation 4.1, 10 mg Ultralan, Otriven nasal drops, Yxin eyedrops, with leflunomide): only slight symptoms of an allergic reaction | time to complete disappearance of allergy symptoms directly after antigen exposure ([4]; Investigation 4.1, constant treatment with Ultralan and leflunomide): ≤ 4 days

Neomycin sulfate
allergy symptoms on intensified antigen exposure during neomycin ([4]; Investigation 5.1, 2 test subjects, direct exposure to hazelnut pollen twice daily, no dexamethasone or cromoglycic acid): no allergy symptoms appeared in either of the test subjects | allergy symptoms on re-exposure to the allergen given during neomycin ([4]; Investigation 5.1, after a month break, daily exposure for 2 weeks): did not exhibit any allergy symptoms | allergy symptoms on exposure to the antigen not given during neomycin ([4]; Investigation 5.2, dust of grass pollens 1x daily, within 2 days): developed symptoms of an allergy | allergy symptoms to the neomycin-associated antigen under inflammatory conditions ([4]; Investigation 5.3, 3rd and 4th day, only neomycin-associated antigen administered): Symptoms of an antigy developed | allergy symptoms on re-exposure to the neomycin-associated antigen ([4]; Investigation 5.4, after another break of 4 weeks, 2 weeks of daily exposure): had not developed any allergy symptoms

C[C@@H]1C[C@H]2[C@@H]3CCC4=CC(=O)C=C[C@]4(C)[C@@]3(F)[C@@H](O)C[C@]2(C)[C@@]1(O)C(=O)CO [dexamethasone]
requirement for dexamethasone administrations, initial average ([4]; Investigation 5.1, under neomycin solution 50 mg/ml every 3 hours, start of first 5 days): 4 administrations per day | requirement for dexamethasone administrations, after decrease ([4]; Investigation 5.1, under neomycin solution, within the first 5 days): 2 administrations per day
